Several values for one entry are separate records, joined by “and”; a condition that tells them apart may be missing. Identical values can stand only once. Toxic doses and inconclusive results are not listed.
Test system: P388 leukemia ip, CD2F1 mice, survival T/C
Test: NCI In Vivo Anticancer Drug Screen. Data for tumor model P388 Leukemia (intraperitoneal) in CD2F1 (CDF1) mice
Settings: endpoint: median survival time, higher = longer survival
How it was run: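 Mice carrying the transplanted tumor received test compound or vehicle. Survival was recorded in each group, and the value is the treated-group measurement divided by that of the vehicle-treated control group.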

[1] = dose: 50.0 mg/kg/injection, schedule: Q01DX005 (ip), vehicle: saline with Tween-80
[2] = dose: 100.0 mg/kg/injection, schedule: Q01DX005 (ip), vehicle: saline with Tween-80
[3] = dose: 200.0 mg/kg/injection, schedule: Q01DX005 (ip), vehicle: saline with Tween-80
[4] = dose: 100.0 mg/kg/injection, schedule: Q01DX009 (ip), vehicle: saline with Tween-80
[5] = dose: 6.25 mg/kg/injection, schedule: Q01DX009 (ip), vehicle: saline
[6] = dose: 12.5 mg/kg/injection, schedule: Q01DX009 (ip), vehicle: saline
[7] = dose: 50.0 mg/kg/injection, schedule: Q01DX005 (ip), vehicle: Klucel (hydroxypropylcellulose) (HPC)
[8] = dose: 100.0 mg/kg/injection, schedule: Q01DX005 (ip), vehicle: Klucel (hydroxypropylcellulose) (HPC)
[9] = dose: 200.0 mg/kg/injection, schedule: Q01DX005 (ip), vehicle: Klucel (hydroxypropylcellulose) (HPC)

Which results are given for c1ccc(CN=C(Nc2ccc(C3=NCCN3)cc2)c2cccc(C(=NCc3ccccc3)Nc3ccc(C4=NCCN4)cc3)c2)cc1?
T/C [1]: 104 % of control; T/C [2]: 104 % of control; T/C [3]: 104 % of control

COCC1(C)CCCC2(C)C3=C(CCC(OC)C3)CCC12 (stereo not drawn) was tested. Which T/C (dose: 100.0 mg/kg/injection, schedule: Q01DX001 (ip), vehicle: saline) did it give?
Its T/C is 99 % of control.

And the T/C (dose: 200.0 mg/kg/injection, schedule: Q01DX001 (ip), vehicle: saline)?
The T/C was 96 % of control.

What about the T/C (dose: 400.0 mg/kg/injection, schedule: Q01DX001 (ip), vehicle: saline) of the same compound?
The T/C was 93 % of control.

Which T/C (dose: 60.0 mg/kg/injection, schedule: Q01DX005 (ip), vehicle: saline with Tween-80) does the source give for Oc1cc2c(cc1C(c1ccc3c(c1)OCO3)N1CCN(C(c3ccc4c(c3)OCO4)c3cc4c(cc3O)OCO4)CC1)OCO2 (stereo not drawn) here?
Its T/C is 89 % of control.

And the T/C (dose: 120.0 mg/kg/injection, schedule: Q01DX005 (ip), vehicle: saline with Tween-80)?
The T/C was 87 % of control.

And the T/C (dose: 240.0 mg/kg/injection, schedule: Q01DX005 (ip), vehicle: saline with Tween-80)?
The T/C was 89 % of control.

For CCN(CC)CCSc1cc(C)c2ccc(N)nc2n1, which T/C (dose: 60.0 mg/kg/injection, schedule: Q01DX005 (ip), vehicle: Klucel (hydroxypropylcellulose) (HPC)) is on record?
Its T/C is 100 % of control.

And the T/C (dose: 120.0 mg/kg/injection, schedule: Q01DX005 (ip), vehicle: Klucel (hydroxypropylcellulose) (HPC))?
The T/C was 106 % of control.

Which T/C [4] does the source give for COc1cc2c(cc1O)C(=O)CCC(C(=O)O)=C2 here?
The T/C was 92 % of control.

What does the source list for N#CC1(c2ccccc2)CCN(c2c3ccccc3nc3ccccc23)CC1?
T/C (dose: 100.0 mg/kg/injection, schedule: Q04DX003 (ip), vehicle: Klucel (hydroxypropylcellulose) (HPC)): 103 % of control and 110 % of control; T/C (dose: 200.0 mg/kg/injection, schedule: Q04DX003 (ip), vehicle: Klucel (hydroxypropylcellulose) (HPC)): 109 % of control and 112 % of control; T/C (dose: 400.0 mg/kg/injection, schedule: Q04DX003 (ip), vehicle: Klucel (hydroxypropylcellulose) (HPC)): 117 % of control and 123 % of control

Which results are given for O=NNc1ccc(Sc2ccccc2)cn1?
T/C [5]: 153 % of control; T/C [6]: 88 % of control and 90 % of control

What does the source list for COc1cc(N2C(N)=NC(N)=NC2(C)C)cc(OC)c1OC?
T/C [5]: 100 % of control; T/C [6]: 95 % of control; T/C (dose: 25.0 mg/kg/injection, schedule: Q01DX009 (ip), vehicle: saline): 90 % of control

How did the T/C [7] turn out when COc1c2c(c3c(c1CCC(=O)O)OC(C)(C)C=C3)OC(C)(C)C=C2 was run?
Its T/C is 102 % of control.

And the T/C [8]?
The T/C was 100 % of control.

What about the T/C [9] of the same compound?
The T/C was 102 % of control.

For Cc1cc(=O)[nH]c2cc(O)c(C(=O)O)cc12, which T/C [7] is on record?
The T/C was 93 % of control.

What about the T/C [8] of the same compound?
The T/C was 93 % of control.

What about the T/C [9] of the same compound?
The T/C was 88 % of control.

Which results are given for COc1cccc(/C=C2\CCc3ccccc3C2=O)c1OC?
T/C (dose: 50.0 mg/kg/injection, schedule: Q01DX009 (ip), vehicle: Klucel (hydroxypropylcellulose) (HPC)): 119 % of control; T/C (dose: 100.0 mg/kg/injection, schedule: Q01DX009 (ip), vehicle: Klucel (hydroxypropylcellulose) (HPC)): 106 % of control; T/C (dose: 200.0 mg/kg/injection, schedule: Q01DX009 (ip), vehicle: Klucel (hydroxypropylcellulose) (HPC)): 110 % of control

Which results are given for CC(C)COP(=O)([O-])OCC[N+](C)(C)C?
T/C (dose: 100.0 mg/kg/injection, schedule: Q01DX001 (ip), vehicle: Klucel (hydroxypropylcellulose) (HPC)): 104 % of control; T/C (dose: 200.0 mg/kg/injection, schedule: Q01DX001 (ip), vehicle: Klucel (hydroxypropylcellulose) (HPC)): 98 % of control; T/C (dose: 400.0 mg/kg/injection, schedule: Q01DX001 (ip), vehicle: Klucel (hydroxypropylcellulose) (HPC)): 100 % of control

Which results are given for COC(=O)c1[nH]c(=S)[nH]c(=O)c1C?
T/C [1]: 89 % of control; T/C [2]: 97 % of control

With CN(C)CCC1CC(O)CCC1(C)O (stereo not drawn) as the compound, how does the T/C (dose: 50.0 mg/kg/injection, schedule: Q01DX005 (ip), vehicle: saline) read?
The T/C was 98 % of control.

What about the T/C (dose: 100.0 mg/kg/injection, schedule: Q01DX005 (ip), vehicle: saline) of the same compound?
The T/C was 100 % of control.

And the T/C (dose: 200.0 mg/kg/injection, schedule: Q01DX005 (ip), vehicle: saline)?
Its T/C is 102 % of control.

For CC(NC(=O)OC(C)(C)C)C(=O)NC(C)C(=O)NC(C)C(=O)OCc1ccccc1 (stereo not drawn), which T/C [1] is on record?
Its T/C is 99 % of control.

And the T/C [2]?
The T/C was 99 % of control.

And the T/C [3]?
The T/C was 101 % of control.

Which T/C (dose: 50.0 mg/kg/injection, schedule: Q01DX009 (ip), vehicle: saline with Tween-80) does the source give for c1ccc(SCCSCCSc2ccccc2)cc1 here?
The T/C was 105 % of control.

And the T/C [4]?
Its T/C is 101 % of control.

What about the T/C (dose: 200.0 mg/kg/injection, schedule: Q01DX009 (ip), vehicle: saline with Tween-80) of the same compound?
Its T/C is 106 % of control.
